Assays:
[1] = test system: AR protein; test: AR protein degradation in MDA-MB-453 cells, Western blotting; type: cell-based; parameters: key to AR protein degradation MDA-MB-453 10 nM: A: >90% degradation (24 hr treatment); B: >50% degradation but <90% (24 hr treatment); C: >10% degradation but <50% (24 hr treatment); D: No significant degradation (24 hr treatment); conditions: 24 hr treatment
Experimental: (§1) The appropriate cell line, e.g., prostate cancer LNCaP, Vcap, or 22RV1 cell line, was treated with Compounds of the Disclosure as indicated. The treated cells were lysed with RIPA buffer. The AR level in the cell lysates was examined by western blotting and a specific AR antibody (ab194196, Abcam, Cambridge, MA 02139) with concentration of 1:20,000. GAPDH was used as a loading control.
(§2) Bands were quantified with ImageJ software. The relative numbers of each band obtained from normalization with its corresponding GAPDH level were compared with Prism 8 software. The DC50 values were produced from Prism 8, and the DC90 values were calculated with an equation=Bottom + (Top-Bottom)/(1+10^((LogEC50-X)*HillSlope) based on DC50 and Hillslope values.
(§3) The amount of AR protein degradation in VCap and MDA-MB-453 cells caused by representative Compounds of the Disclosure at the concentrations indicated is presented in Table 4, FIG. 1, and FIG. 2.

[2] = target: T1, AR protein (Homo sapiens, UniProt P10275); test: AR protein degradation in VCaP cells, Western blotting; type: cell-based; parameters: key to AR protein degradation VCap 10 nM / AR protein degradation VCap 100 nM: A: >90% degradation (24 hr treatment); B: >50% degradation but <90% (24 hr treatment); C: >10% degradation but <50% (24 hr treatment); D: No significant degradation (24 hr treatment); conditions: 24 hr treatment; for percent AR protein degradation at 0.1 µM / AR protein degradation VCap 100 nM: 100 nM; for AR protein degradation VCap 10 nM / percent AR protein degradation at 0.01 µM: 10 nM
T1 construct: endogenous in cells; host or cells: VCaP
T1 sequence (P10275 1-920): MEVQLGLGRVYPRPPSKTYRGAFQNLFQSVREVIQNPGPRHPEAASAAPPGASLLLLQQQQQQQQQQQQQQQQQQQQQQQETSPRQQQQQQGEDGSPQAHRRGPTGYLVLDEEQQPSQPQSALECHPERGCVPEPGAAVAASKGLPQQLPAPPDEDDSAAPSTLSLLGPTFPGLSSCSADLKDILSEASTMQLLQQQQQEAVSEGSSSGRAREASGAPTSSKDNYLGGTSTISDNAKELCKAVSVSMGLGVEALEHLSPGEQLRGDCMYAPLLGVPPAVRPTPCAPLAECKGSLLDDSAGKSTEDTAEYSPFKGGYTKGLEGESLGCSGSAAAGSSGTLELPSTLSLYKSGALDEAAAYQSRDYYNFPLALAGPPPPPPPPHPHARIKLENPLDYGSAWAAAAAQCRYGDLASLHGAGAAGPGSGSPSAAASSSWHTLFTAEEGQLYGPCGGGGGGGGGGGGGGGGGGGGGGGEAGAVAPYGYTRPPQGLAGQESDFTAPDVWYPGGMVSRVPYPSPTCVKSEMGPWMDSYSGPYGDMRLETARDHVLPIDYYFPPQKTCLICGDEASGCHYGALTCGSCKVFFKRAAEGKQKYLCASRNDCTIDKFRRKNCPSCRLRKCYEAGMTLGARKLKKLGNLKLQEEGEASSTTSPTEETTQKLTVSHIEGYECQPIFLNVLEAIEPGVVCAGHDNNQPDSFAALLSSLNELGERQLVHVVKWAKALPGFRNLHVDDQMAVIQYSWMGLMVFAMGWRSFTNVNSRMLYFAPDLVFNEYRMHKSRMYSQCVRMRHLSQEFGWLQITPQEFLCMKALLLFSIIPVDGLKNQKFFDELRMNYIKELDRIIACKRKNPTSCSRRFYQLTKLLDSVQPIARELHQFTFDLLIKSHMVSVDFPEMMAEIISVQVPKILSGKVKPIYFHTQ
Experimental: as §1, §2, §3

Structure (SMILES) | percent AR protein degradation at 0.1 µM [2] | percent AR protein degradation at 0.01 µM [2] | other results
N#Cc1ccc(O[C@H]2CC[C@H](N3Cc4cc(N5CCN(CC(=O)N6CCc7cc8c(cc7C6)C(=O)N(C6CCC(=O)NC6=O)C8=O)CC5)ccc4C3=O)CC2)cc1Cl (stereo partly drawn) [compound 3] |  |  | AR protein degradation MDA-MB-453 10 nM [1]: D; AR protein degradation MDA-MB-453 100 nM [1]: C (>10% degradation but <50% (24 hr treatment))
N#Cc1ccc(O[C@H]2CC[C@H](N3Cc4cc(N5CCN(CC(=O)N6Cc7cc8c(cc7C6)C(=O)N(C6CCC(=O)NC6=O)C8=O)CC5)ccc4C3=O)CC2)cc1Cl (stereo partly drawn) [compound 4] |  |  | AR protein degradation MDA-MB-453 10 nM [1]: B (>50% degradation but <90% (24 hr treatment)); AR protein degradation MDA-MB-453 100 nM [1]: A (>90% degradation (24 hr treatment))
N#Cc1ccc(O[C@H]2CC[C@H](Nc3ccc(C(=O)N4CCC(CN5Cc6cc7c(cc6C5)C(=O)N(C5CCC(=O)NC5=O)C7=O)CC4)cc3)CC2)cc1Cl (stereo partly drawn) [compound 9] | 50 to 90% |  | AR protein degradation VCap 10 nM [2]: D
C[C@@H]1CN(C(=O)c2ccc(N3CCC(CN4Cc5cc6c(cc5C4)C(=O)N(C4CCC(=O)NC4=O)C6=O)CC3)cc2)C[C@H]1Oc1ccc(C#N)c(Cl)c1 (stereo partly drawn) [compound 122] |  |  | AR protein degradation VCap 10 nM [2]: D; AR protein degradation VCap 100 nM [2]: D
CN(c1ccc(C#N)c(Cl)c1)[C@H]1CC[C@H](NC(=O)c2ccc(N3CCC(CN4Cc5cc6c(cc5C4)C(=O)N(C4CCC(=O)NC4=O)C6=O)CC3)cc2)CC1 (stereo partly drawn) [compound 20, N-((1r,4r)-4-((3-chloro-4-cyanophenyl)(methyl)amino)cyclohexyl)-4-(4-((6-(2,6-dioxopiperidin-3-yl)-5,7-dioxo-3,5,6,7-tetrahydropyrrolo [3,4-f]isoindol-2(1H)-yl)methyl)piperidin-1-yl)benzamide] | > 90% | > 90% | 
C[C@H]1C[C@H](NC(=O)c2ccc(N3CCC(N4Cc5cc6c(cc5C4)C(=O)N(C4CCC(=O)NC4=O)C6=O)CC3)cc2)CC[C@H]1Oc1ccc(C#N)c(Cl)c1 (stereo partly drawn) [compound 13] | > 90% | > 90% | 
N#Cc1ccc(O[C@H]2CC[C@H](Oc3ccc(C(=O)N4CCC(CN5Cc6cc7c(cc6C5)C(=O)N(C5CCC(=O)NC5=O)C7=O)CC4)cc3)CC2)cc1Cl (stereo partly drawn) [compound 12] |  |  | AR protein degradation VCap 10 nM [2]: D; AR protein degradation VCap 100 nM [2]: D
CC1(C)[C@H](Oc2ccc(C#N)c(Cl)c2)C(C)(C)[C@H]1N1Cc2cc(N3CCN(CC(=O)N4CCc5cc6c(cc5C4)C(=O)N(C4CCC(=O)NC4=O)C6=O)CC3)ccc2C1=O (stereo partly drawn) [compound 1] |  |  | AR protein degradation MDA-MB-453 10 nM [1]: D; AR protein degradation MDA-MB-453 100 nM [1]: C (>10% degradation but <50% (24 hr treatment))
N#Cc1ccc(O[C@H]2CC[C@H](NC(=O)c3ccc4c(c3)CCN(C(=O)CN3Cc5cc6c(cc5C3)C(=O)N(C3CCC(=O)NC3=O)C6=O)CC4)CC2)cc1Cl (stereo partly drawn) [compound 25] | > 90% | > 90% | 
N#Cc1ccc(O[C@H]2CC[C@H](NC(=O)c3ccc(N4CCC(CN5Cc6cc7c(cc6C5)C(=O)N(C5CCC(=O)NC5=O)C7=O)CC4)cc3)CC2)cc1Cl (stereo partly drawn) [compound 8, N-((1r,4r)-4-(3-chloro-4-cyanophenoxy)cyclohexyl)-4-(4-((6-(2,6-dioxopiperidin-3-yl)-5,7-dioxo-3,5,6,7-tetrahydropyrrolo[3,4-f]isoindol-2(1H)-yl)methyl)piperidin-1-yl)benzamide] | > 90% | > 90% | 
N#Cc1ccc(OC2CCC3(CC2)CC(NC(=O)c2ccc(N4CCC(CN5Cc6cc7c(cc6C5)C(=O)N(C5CCC(=O)NC5=O)C7=O)CC4)cc2)C3)cc1Cl (stereo not drawn) [compound 125] | 10 to 50% |  | AR protein degradation VCap 10 nM [2]: D
N#Cc1ccc(N[C@H]2CC[C@H](NC(=O)c3ccc(N4CC(CN5Cc6cc7c(cc6C5)C(=O)N(C5CCC(=O)NC5=O)C7=O)C4)cc3)CC2)cc1Cl (stereo partly drawn) [compound 22] | > 90% | 50 to 90% | 
CN(c1ccc(C#N)c(Cl)c1)[C@H]1CC[C@H](NC(=O)c2ccc(C3CCN(CC(=O)N4Cc5cc6c(cc5C4)C(=O)N(C4CCC(=O)NC4=O)C6)CC3)cc2)CC1 (stereo partly drawn) [compound 328, N-((1r,4r)-4-((3-Chloro-4-Cyanophenyl)(Methyl)Amino)Cyclohexyl)-4-(1-(2-(6-(2,6-Dioxopiperidin-3-Yl)-5-Oxo-3,5,6,7-Tetrahydropyrrolo[3,4-F]Isoindol-2(1h)-Yl)-2-Oxoethyl)Piperidin-4-Yl)Benzamide] | > 90% | > 90% | 
CN(c1ccc(C#N)c(Cl)c1)[C@H]1CC[C@H](NC(=O)c2ccc([C@H]3CC[C@H](CN4Cc5cc6c(cc5C4)C(=O)N(C4CCC(=O)CC4=O)C6=O)CC3)cc2)CC1 (stereo partly drawn) [compound 280] | > 90% | > 90% | 
CN(c1ccc(C#N)c(Cl)c1)[C@H]1CC[C@H](NC(=O)c2ccc(CN3CCC(N4Cc5cc6c(cc5C4)C(=O)N(C4CCC(=O)NC4=O)C6=O)CC3)cc2)CC1 (stereo partly drawn) [compound 278] | > 90% | > 90% | 
CC1(C)C(Nc2ccc(C(=O)N3CCC(CN4Cc5cc6c(cc5C4)C(=O)N(C4CCC(=O)NC4=O)C6=O)CC3)cc2)C(C)(C)C1Oc1ccc(C#N)c(Cl)c1 (stereo not drawn) [compound 175] | 50 to 90% | 10 to 50% | 
C[C@H]1C[C@H](NC(=O)c2ccc(N3CCC(CN4Cc5cc6c(cc5C4)C(=O)N(C4CCC(=O)NC4=O)C6=O)CC3)cc2)CC[C@H]1Oc1ccc(C#N)c(Cl)c1 (stereo partly drawn) [compound 14] | > 90% | > 90% | 
N#Cc1ccc(O[C@H]2CC[C@H](N3Cc4cc(C(=O)N5CCC(N6Cc7cc8c(cc7C6)C(=O)N(C6CCC(=O)NC6=O)C8=O)CC5)ccc4C3=O)CC2)cc1Cl (stereo partly drawn) [compound 173] | > 90% | 10 to 50% | 
N#Cc1ccc(N[C@H]2CC[C@H](NC(=O)c3ccc(N4CCC(N5Cc6cc7c(cc6C5)C(=O)N(C5CCC(=O)NC5=O)C7=O)CC4)cc3)CC2)cc1Cl (stereo partly drawn) [compound 17] | > 90% | > 90% | 
N#Cc1ccc(O[C@H]2CC[C@H](Nc3ccc(C(=O)N4CCC(N5Cc6cc7c(cc6C5)C(=O)N(C5CCC(=O)NC5=O)C7=O)CC4)cc3)CC2)cc1Cl (stereo partly drawn) [compound 10] | 50 to 90% |  | AR protein degradation VCap 10 nM [2]: D
N#Cc1ccc(N[C@H]2CC[C@H](NC(=O)c3ccc(N4CCC(CN5Cc6cc7c(cc6C5)C(=O)N(C5CCC(=O)NC5=O)C7=O)CC4)cc3)CC2)cc1Cl (stereo partly drawn) [compound 18] | > 90% | 50 to 90% | 
CN(c1ccc(C#N)c(Cl)c1)[C@H]1CC[C@H](NC(=O)c2ccc([C@H]3CC[C@H](CN4Cc5cc6c(cc5C4)C(=O)N(C4CCC(=O)NC4=O)C6=O)CC3)cn2)CC1 (stereo partly drawn) [compound 313] | > 90% | > 90% | 
N#Cc1ccc(OC2CCN(C(=O)Oc3ccc(C(=O)N4CCC(CN5Cc6cc7c(cc6C5)C(=O)N(C5CCC(=O)NC5=O)C7=O)CC4)cc3)CC2)cc1Cl (stereo not drawn) [compound 131] | 10 to 50% |  | AR protein degradation VCap 10 nM [2]: D
N#Cc1ccc(O[C@H]2CC[C@H](NC(=O)c3ccc4c(c3)CCN(CC(=O)N3Cc5cc6c(cc5C3)C(=O)N(C3CCC(=O)NC3=O)C6=O)C4)CC2)cc1Cl (stereo partly drawn) [compound 27, N-((1r,4r)-4-(3-chloro-4-cyanophenoxy)cyclohexyl)-2-(2-(6-(2,6-dioxopiperidin-3-yl)-5,7-dioxo-3,5,6,7-tetrahydropyrrolo[3,4-f]isoindol-2(1H)-yl)-2-oxoethyl)-1,2,3,4-tetrahydroisoquinoline-6-carboxamide] | > 90% | 50 to 90% | 

From patent publication US20230357249A1, “ANDROGEN RECEPTOR PROTEIN DEGRADERS WITH A TRICYCLIC CEREBLON LIGAND” (THE REGENTS OF THE UNIVERSITY OF MICHIGAN, priority 2020, published 2023)
